Columns and labels:
[1] = target: Protein kinase C eta type (Homo sapiens) (UniProt P24723); experiment: Inhibition of wild-type human partial length PRKCH (S324 to P683 residues) expressed in bacterial expression system assessed as residual activity at 1 uM by Kinomescan method relative to control
[2] = target: Epidermal growth factor receptor (Homo sapiens, UniProt P00533); experiment: Inhibition of wild-type human partial length EGFR (R669 to V1011 residues) expressed in bacterial expression system assessed as residual activity at 1 uM by Kinomescan method relative to control
[3] = target: Homeodomain-interacting protein kinase 4 (Homo sapiens) (UniProt Q8NE63); experiment: Inhibition of wild-type human partial length HIPK4 (M1 to V384 residues) expressed in bacterial expression system assessed as residual activity at 1 uM by Kinomescan method relative to control
[4] = target: Mitogen-activated protein kinase kinase kinase kinase 2 (Homo sapiens) (UniProt Q12851); experiment: Inhibition of wild-type human partial length MAP4K2 (M1 to G318 residues) expressed in mammalian expression system assessed as residual activity at 1 uM by Kinomescan method relative to control
[5] = target: Mitogen-activated protein kinase 13 (Homo sapiens) (UniProt O15264); experiment: Inhibition of wild-type human full length p38-delta (M1 to L365 residues) expressed in bacterial expression system assessed as residual activity at 1 uM by Kinomescan method relative to control
[6] = target: Mast/stem cell growth factor receptor Kit (Homo sapiens) (UniProt P10721); experiment: Inhibition of wild-type human partial length autoinhibited KIT (Y545 to D952 residues) expressed in mammalian expression system assessed as residual activity at 1 uM by Kinomescan method relative to control
[7] = target: Serine/threonine-protein kinase 24 (Homo sapiens) (UniProt Q9Y6E0); experiment: Inhibition of wild-type human partial length MST3 (A30 to S311 residues) expressed in bacterial expression system assessed as residual activity at 1 uM by Kinomescan method relative to control
[8] = target: Serine/threonine-protein kinase Nek1 (Homo sapiens) (UniProt Q96PY6); experiment: Inhibition of wild-type human partial length NEK1 (M1 to K278 residues) expressed in bacterial expression system assessed as residual activity at 1 uM by Kinomescan method relative to control
[9] = target: Discoidin domain-containing receptor 2 (Homo sapiens) (UniProt Q16832); experiment: Inhibition of wild-type human partial length DDR2 (V555 to E855 residues) expressed in mammalian expression system assessed as residual activity at 1 uM by Kinomescan method relative to control
[10] = target: Ephrin type-A receptor 5 (Homo sapiens) (UniProt P54756); experiment: Inhibition of wild-type human partial length EPHA5 (T627 to V930 residues) expressed in bacterial expression system assessed as residual activity at 1 uM by Kinomescan method relative to control
[11] = target: Bone morphogenetic protein receptor type-2 (Homo sapiens) (UniProt Q13873); experiment: Inhibition of wild-type human partial length BMPR2 (R179 to Q526 residues) expressed in mammalian expression system assessed as residual activity at 1 uM by Kinomescan method relative to control
[12] = system: Phosphatidylinositol 4,5-bisphosphate 3-kinase catalytic subunit alpha isoform (Homo sapiens), P42336 [I800L]; experiment: Inhibition of human partial length PIK3CA I800L mutant (R108 to N1068 residues) expressed in mammalian expression system assessed as residual activity at 1 uM by Kinomescan method relative to control
[13] = target: Focal adhesion kinase 1 (Homo sapiens) (UniProt Q05397); experiment: Inhibition of wild-type human partial length FAK (D402 to R696 residues) expressed in bacterial expression system assessed as residual activity at 1 uM by Kinomescan method relative to control
[14] = target: Serine/threonine-protein kinase Nek2 (Homo sapiens) (UniProt P51955); experiment: Inhibition of wild-type human partial length NEK2 (M1 to K309 residues) expressed in bacterial expression system assessed as residual activity at 1 uM by Kinomescan method relative to control
[15] = system: PBMC; experiment: Cytotoxicity against PBMC (unknwon origin); type: cell-based
[16] = target: Non-receptor tyrosine-protein kinase TNK1 (Homo sapiens) (UniProt Q13470); experiment: Inhibition of wild-type human full length TNK1 (M1 to P661 residues) expressed in bacterial expression system assessed as residual activity at 1 uM by Kinomescan method relative to control
[17] = target: NUAK family SNF1-like kinase 1 (Homo sapiens) (UniProt O60285); experiment: Inhibition of wild-type human partial length ARK5 (E25 to I332 residues) expressed in bacterial expression system assessed as residual activity at 1 uM by Kinomescan method relative to control
[18] = target: Dual specificity tyrosine-phosphorylation-regulated kinase 1B (Homo sapiens) (UniProt Q9Y463); experiment: Inhibition of wild-type human full length DYRK1B (M1 to S629 residues) expressed in bacterial expression system assessed as residual activity at 1 uM by Kinomescan method relative to control
[19] = target: Receptor-type tyrosine-protein kinase FLT3 (Homo sapiens) (UniProt P36888); experiment: Inhibition of wild-type human partial length FLT3 (V592 to Y969 residues) expressed in bacterial expression system assessed as residual activity at 1 uM by Kinomescan method relative to control
[20] = target: Mitogen-activated protein kinase 14 (Homo sapiens) (UniProt Q16539); experiment: Inhibition of wild-type human full length p38-alpha (M1 to S360 residues) expressed in bacterial expression system assessed as residual activity at 1 uM by Kinomescan method relative to control
[21] = target: Transient receptor potential cation channel subfamily M member 6 (Homo sapiens) (UniProt Q9BX84); experiment: Inhibition of wild-type human partial length TRPM6 (Q1723 to I1998 residues) expressed in mammalian expression system assessed as residual activity at 1 uM by Kinomescan method relative to control
[22] = target: Receptor tyrosine-protein kinase erbB-2 (Homo sapiens) (UniProt P04626); experiment: Inhibition of wild-type human partial length ERBB2 (K646 to V1225 residues) expressed in mammalian expression system assessed as residual activity at 1 uM by Kinomescan method relative to control
[23] = target: Dual specificity tyrosine-phosphorylation-regulated kinase 1A (Homo sapiens) (UniProt Q13627); experiment: Inhibition of wild-type human partial length DYRK1A (H129 to S509 residues) expressed in mammalian expression system assessed as residual activity at 1 uM by Kinomescan method relative to control
[24] = target: Casein kinase II subunit alpha (Homo sapiens) (UniProt P68400); experiment: Inhibition of wild-type human full length CSNK2A1 (M1 to Q391 residues) expressed in mammalian expression system assessed as residual activity at 1 uM by Kinomescan method relative to control
[25] = target: Serine/threonine-protein kinase MRCK beta (Homo sapiens) (UniProt Q9Y5S2); experiment: Inhibition of wild-type human partial length MRCKB (L56 to S417 residues) expressed in bacterial expression system assessed as residual activity at 1 uM by Kinomescan method relative to control

Chain of Bone morphogenetic protein receptor type-2 (Homo sapiens) (Q13873 whole entry, the tested form may be a part, canonical isoform): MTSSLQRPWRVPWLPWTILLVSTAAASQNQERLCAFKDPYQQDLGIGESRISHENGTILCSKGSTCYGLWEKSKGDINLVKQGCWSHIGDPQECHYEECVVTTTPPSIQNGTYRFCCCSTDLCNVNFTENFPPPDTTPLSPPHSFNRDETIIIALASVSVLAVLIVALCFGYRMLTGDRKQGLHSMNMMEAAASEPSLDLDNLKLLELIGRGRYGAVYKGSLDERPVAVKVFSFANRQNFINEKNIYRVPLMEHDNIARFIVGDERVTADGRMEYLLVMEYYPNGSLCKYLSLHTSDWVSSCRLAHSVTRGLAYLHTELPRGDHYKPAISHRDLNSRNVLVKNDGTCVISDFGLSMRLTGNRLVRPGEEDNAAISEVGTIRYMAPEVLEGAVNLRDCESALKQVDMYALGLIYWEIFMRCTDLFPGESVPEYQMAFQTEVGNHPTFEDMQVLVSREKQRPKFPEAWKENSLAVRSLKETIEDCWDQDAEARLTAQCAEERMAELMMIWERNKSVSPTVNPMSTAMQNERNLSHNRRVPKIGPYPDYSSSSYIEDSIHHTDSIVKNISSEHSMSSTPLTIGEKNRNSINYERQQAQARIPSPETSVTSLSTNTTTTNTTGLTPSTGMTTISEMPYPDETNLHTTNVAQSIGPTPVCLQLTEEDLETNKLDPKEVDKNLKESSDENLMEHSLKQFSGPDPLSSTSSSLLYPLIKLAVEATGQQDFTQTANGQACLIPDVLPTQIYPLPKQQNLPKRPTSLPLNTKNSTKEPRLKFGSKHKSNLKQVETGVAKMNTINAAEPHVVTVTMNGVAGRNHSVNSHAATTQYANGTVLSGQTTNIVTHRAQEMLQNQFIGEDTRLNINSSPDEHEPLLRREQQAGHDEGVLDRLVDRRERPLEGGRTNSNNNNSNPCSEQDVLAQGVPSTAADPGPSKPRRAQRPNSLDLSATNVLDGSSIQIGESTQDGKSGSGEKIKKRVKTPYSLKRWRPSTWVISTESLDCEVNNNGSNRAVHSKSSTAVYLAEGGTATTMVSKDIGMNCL
Chain of Serine/threonine-protein kinase Nek2 (Homo sapiens) (P51955 whole entry, the tested form may be a part): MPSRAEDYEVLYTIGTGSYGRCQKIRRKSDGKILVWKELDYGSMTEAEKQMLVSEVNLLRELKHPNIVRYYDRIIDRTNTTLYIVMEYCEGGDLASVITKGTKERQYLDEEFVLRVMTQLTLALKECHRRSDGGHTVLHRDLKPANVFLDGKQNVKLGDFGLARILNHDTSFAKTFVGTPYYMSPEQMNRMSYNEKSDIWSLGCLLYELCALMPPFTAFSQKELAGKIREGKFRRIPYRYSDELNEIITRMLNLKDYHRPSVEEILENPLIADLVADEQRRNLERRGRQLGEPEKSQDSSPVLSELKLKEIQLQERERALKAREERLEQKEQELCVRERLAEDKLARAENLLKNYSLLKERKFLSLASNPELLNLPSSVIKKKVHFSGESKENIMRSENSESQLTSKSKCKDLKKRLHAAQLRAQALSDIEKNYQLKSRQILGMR
Chain of Non-receptor tyrosine-protein kinase TNK1 (Homo sapiens) (Q13470 whole entry, the tested form may be a part): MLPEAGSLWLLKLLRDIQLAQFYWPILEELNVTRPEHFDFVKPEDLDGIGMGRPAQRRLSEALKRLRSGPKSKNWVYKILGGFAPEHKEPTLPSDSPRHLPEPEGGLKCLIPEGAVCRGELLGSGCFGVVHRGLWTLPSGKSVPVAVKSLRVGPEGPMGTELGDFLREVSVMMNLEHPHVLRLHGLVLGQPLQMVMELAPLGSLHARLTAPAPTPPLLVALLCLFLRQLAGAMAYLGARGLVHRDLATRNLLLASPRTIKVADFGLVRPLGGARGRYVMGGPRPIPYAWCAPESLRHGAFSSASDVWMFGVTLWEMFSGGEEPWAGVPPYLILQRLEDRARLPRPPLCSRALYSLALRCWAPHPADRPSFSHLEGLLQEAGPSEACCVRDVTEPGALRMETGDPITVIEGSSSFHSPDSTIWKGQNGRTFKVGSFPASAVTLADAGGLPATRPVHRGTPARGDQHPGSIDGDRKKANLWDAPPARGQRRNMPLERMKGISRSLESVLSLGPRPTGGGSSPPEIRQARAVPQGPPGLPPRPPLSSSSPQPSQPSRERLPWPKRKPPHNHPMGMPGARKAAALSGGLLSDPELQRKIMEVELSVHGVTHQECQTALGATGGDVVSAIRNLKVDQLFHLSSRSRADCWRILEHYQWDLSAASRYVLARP
Chain of Mitogen-activated protein kinase 13 (Homo sapiens) (O15264 whole entry, the tested form may be a part): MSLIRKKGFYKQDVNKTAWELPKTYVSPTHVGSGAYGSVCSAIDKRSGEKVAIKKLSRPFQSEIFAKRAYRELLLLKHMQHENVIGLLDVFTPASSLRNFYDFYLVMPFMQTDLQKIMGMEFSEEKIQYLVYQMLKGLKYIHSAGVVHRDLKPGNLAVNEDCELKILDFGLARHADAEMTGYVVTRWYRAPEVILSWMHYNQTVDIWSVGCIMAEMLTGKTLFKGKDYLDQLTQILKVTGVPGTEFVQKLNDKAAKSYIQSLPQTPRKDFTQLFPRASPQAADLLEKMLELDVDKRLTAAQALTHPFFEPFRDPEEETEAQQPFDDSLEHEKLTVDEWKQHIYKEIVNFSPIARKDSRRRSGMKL
Chain of Dual specificity tyrosine-phosphorylation-regulated kinase 1B (Homo sapiens) (Q9Y463 whole entry, looked up, the tested form may be a part): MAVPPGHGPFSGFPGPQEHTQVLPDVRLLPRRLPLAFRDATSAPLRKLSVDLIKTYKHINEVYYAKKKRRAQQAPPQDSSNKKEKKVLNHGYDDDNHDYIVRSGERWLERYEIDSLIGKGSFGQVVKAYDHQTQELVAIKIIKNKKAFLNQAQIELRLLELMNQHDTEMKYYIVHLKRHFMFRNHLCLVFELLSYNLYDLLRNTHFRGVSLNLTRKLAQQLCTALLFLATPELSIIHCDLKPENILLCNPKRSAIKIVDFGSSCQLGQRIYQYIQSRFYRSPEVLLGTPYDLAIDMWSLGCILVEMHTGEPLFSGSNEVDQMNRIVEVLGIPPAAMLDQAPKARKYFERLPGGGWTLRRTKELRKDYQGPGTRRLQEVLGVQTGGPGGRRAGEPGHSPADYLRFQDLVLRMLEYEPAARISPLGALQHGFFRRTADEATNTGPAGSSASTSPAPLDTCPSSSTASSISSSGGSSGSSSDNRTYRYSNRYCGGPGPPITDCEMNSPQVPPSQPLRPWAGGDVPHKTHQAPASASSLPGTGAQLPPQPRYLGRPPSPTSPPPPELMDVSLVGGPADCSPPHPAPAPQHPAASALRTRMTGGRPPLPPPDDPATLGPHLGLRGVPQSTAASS
Chain of Protein kinase C eta type (Homo sapiens) (P24723 whole entry, the tested form may be a part): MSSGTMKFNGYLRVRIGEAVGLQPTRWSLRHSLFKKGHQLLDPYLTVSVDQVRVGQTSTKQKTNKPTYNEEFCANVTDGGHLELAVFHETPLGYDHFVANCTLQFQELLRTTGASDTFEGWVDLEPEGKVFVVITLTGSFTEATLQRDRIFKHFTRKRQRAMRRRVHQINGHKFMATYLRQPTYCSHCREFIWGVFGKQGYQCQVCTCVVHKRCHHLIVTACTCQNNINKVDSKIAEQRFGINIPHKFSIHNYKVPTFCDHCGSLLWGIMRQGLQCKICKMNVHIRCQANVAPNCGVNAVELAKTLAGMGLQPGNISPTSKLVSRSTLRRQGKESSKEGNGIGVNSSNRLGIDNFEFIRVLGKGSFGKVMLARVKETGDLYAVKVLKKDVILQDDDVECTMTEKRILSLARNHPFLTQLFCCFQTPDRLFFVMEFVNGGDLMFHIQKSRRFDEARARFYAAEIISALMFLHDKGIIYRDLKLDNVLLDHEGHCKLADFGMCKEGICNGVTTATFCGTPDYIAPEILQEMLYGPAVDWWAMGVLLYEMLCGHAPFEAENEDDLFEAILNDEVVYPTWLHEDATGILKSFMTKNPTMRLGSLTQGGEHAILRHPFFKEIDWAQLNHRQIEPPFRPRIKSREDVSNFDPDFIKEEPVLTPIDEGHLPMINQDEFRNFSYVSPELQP
Chain of NUAK family SNF1-like kinase 1 (Homo sapiens) (O60285 whole entry, the tested form may be a part): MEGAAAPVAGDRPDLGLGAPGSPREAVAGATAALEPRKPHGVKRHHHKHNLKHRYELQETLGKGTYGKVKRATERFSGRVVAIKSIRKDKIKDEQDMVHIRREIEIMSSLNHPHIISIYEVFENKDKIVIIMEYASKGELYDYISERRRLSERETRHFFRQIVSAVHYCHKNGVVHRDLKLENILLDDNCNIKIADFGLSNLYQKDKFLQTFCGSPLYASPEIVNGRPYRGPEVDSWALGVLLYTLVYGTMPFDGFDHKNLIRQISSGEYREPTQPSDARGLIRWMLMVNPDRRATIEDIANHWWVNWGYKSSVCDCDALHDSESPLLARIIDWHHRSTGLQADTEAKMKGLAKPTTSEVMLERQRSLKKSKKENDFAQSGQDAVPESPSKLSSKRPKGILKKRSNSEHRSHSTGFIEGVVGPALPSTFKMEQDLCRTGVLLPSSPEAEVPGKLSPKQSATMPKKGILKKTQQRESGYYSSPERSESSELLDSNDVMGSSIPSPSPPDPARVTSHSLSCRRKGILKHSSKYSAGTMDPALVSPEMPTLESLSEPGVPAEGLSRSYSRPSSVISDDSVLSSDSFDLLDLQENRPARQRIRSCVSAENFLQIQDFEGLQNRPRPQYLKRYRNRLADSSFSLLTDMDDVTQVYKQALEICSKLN
Chain of Serine/threonine-protein kinase 24 (Homo sapiens) (Q9Y6E0 whole entry, looked up, the tested form may be a part): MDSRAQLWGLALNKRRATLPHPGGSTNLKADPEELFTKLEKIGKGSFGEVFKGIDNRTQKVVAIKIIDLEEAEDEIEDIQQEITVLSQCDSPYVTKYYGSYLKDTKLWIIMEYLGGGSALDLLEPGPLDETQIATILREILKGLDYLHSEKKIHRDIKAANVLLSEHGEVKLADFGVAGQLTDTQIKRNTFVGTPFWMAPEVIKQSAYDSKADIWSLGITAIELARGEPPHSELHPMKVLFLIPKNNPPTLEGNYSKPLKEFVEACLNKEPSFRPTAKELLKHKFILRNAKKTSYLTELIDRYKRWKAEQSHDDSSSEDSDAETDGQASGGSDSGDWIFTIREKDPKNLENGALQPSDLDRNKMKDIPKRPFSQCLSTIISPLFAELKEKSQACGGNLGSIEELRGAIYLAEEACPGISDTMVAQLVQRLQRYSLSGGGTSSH

Question: With `C=CC(=O)Nc1cc(Nc2cc(-c3cccc(NC(=O)c4ccc(C(C)(C)C)cc4)c3C)cn(C)c2=O)ccc1C(=O)N1CCOCC1` as the compound, how does the Activity [1] read?
Answer: 100%

Question: And the Activity [2]?
Answer: 92%

Question: And the Activity [3]?
Answer: 79%

Question: What about the Activity [4] of the same compound?
Answer: 94%

Question: What about the Activity [5] of the same compound?
Answer: 84%

Question: What about the Activity [6] of the same compound?
Answer: 100%

Question: What about the Activity [7] of the same compound?
Answer: 98%

Question: What about the Activity [8] of the same compound?
Answer: 100%

Question: And the Activity [9]?
Answer: 93%

Question: What about the Activity [10] of the same compound?
Answer: 92%

Question: And the Activity [11]?
Answer: 93%

Question: What about the Activity [12] of the same compound?
Answer: 100%

Question: What about the Activity [13] of the same compound?
Answer: 96%

Question: And the Activity [14]?
Answer: 99%

Question: What about the Activity [15] of the same compound?
Answer: Non-Toxic

Question: What about the Activity [16] of the same compound?
Answer: 92%

Question: What about the Activity [17] of the same compound?
Answer: 100%

Question: What about the Activity [18] of the same compound?
Answer: 74%

Question: What about the Activity [19] of the same compound?
Answer: 94%

Question: What about the Activity [20] of the same compound?
Answer: 100%

Question: And the Activity [21]?
Answer: 99%

Question: And the Activity [22]?
Answer: 97%

Question: And the Activity [23]?
Answer: 100%

Question: What about the Activity [24] of the same compound?
Answer: 100%

Question: What about the Activity [25] of the same compound?
Answer: 98%

Source: ChEMBL document CHEMBL4024706 (Eur J Med Chem, 2017)
